Test results reported in the NIST ThermoML archive (doi:10.1016/j.fluid.2013.08.029).

Experiment: xn = mol fraction of the nth substance listed
Conditions: 101 kPa, Liquid; for speed of sound: Sing-around technique in a fixed-path interferometer; for mass density: Vibrating tube method

CCCCn1cc[n+](C)c1C.F[B-](F)(F)F [1-butyl-2,3-dimethylimidazolium tetrafluoroborate] + OCCO
Conditions	mass density [kg/m3]	speed of sound [m/s]
288.15 K, x1 = 0.0698	1138.16	1674
288.15 K, x1 = 0.1114	1148.04	1668.1
288.15 K, x1 = 0.219	1163.09	1661.9
288.15 K, x1 = 0.3157	1172.24	1657
288.15 K, x1 = 0.4167	1177.8	1653.7
288.15 K, x1 = 0.5153	1181.99	1652.5
288.15 K, x1 = 0.6157	1185.96	1653.1
288.15 K, x1 = 0.7042	1189.36	1654.9
288.15 K, x1 = 0.8028	1192.88	1658
288.15 K, x1 = 0.9065	1196.58	1662.1
293.15 K, x1 = 0.0698	1134.55	1661
293.15 K, x1 = 0.1114	1144.09	1655.6
293.15 K, x1 = 0.219	1159.15	1649.5
293.15 K, x1 = 0.3157	1167.38	1643.8
293.15 K, x1 = 0.4167	1172.09	1639.4
293.15 K, x1 = 0.5153	1176.32	1638
293.15 K, x1 = 0.6157	1180.66	1638.7
293.15 K, x1 = 0.7042	1184.47	1641.5
293.15 K, x1 = 0.8028	1188.27	1645.2
293.15 K, x1 = 0.9065	1192.09	1649.9
298.15 K, x1 = 0.0698	1130.93	1648.8
298.15 K, x1 = 0.1114	1140.43	1643.3
298.15 K, x1 = 0.219	1155.3	1636.8
298.15 K, x1 = 0.3157	1162.95	1631.4
298.15 K, x1 = 0.4167	1167.85	1628.2
298.15 K, x1 = 0.5153	1171.8	1627.1
298.15 K, x1 = 0.6157	1176.73	1627.5
298.15 K, x1 = 0.7042	1180.56	1630.3
298.15 K, x1 = 0.8028	1184.59	1633.5
298.15 K, x1 = 0.9065	1188.59	1637.7
303.15 K, x1 = 0.0698	1127.3	1637
303.15 K, x1 = 0.1114	1136.79	1631.5
303.15 K, x1 = 0.219	1151.47	1624.4
303.15 K, x1 = 0.3157	1158.29	1619.7
303.15 K, x1 = 0.4167	1162.58	1616.6
303.15 K, x1 = 0.5153	1166.36	1615.5
303.15 K, x1 = 0.6157	1171.53	1616.5
303.15 K, x1 = 0.7042	1176.14	1618.8
303.15 K, x1 = 0.8028	1180.73	1621.7
303.15 K, x1 = 0.9065	1185.16	1625.7
308.15 K, x1 = 0.0698	1123.65	1625.3
308.15 K, x1 = 0.1114	1133.19	1619.4
308.15 K, x1 = 0.219	1147.66	1612.2
308.15 K, x1 = 0.3157	1154.93	1607.7
308.15 K, x1 = 0.4167	1158.22	1604.7
308.15 K, x1 = 0.5153	1161.45	1604.2
308.15 K, x1 = 0.6157	1167.01	1605
308.15 K, x1 = 0.7042	1172.28	1607.4
308.15 K, x1 = 0.8028	1177.55	1610.5
308.15 K, x1 = 0.9065	1182.72	1613.7
313.15 K, x1 = 0.0698	1120	1613.8
313.15 K, x1 = 0.1114	1129.53	1607.9
313.15 K, x1 = 0.219	1143.87	1600
313.15 K, x1 = 0.3157	1150.95	1595.7
313.15 K, x1 = 0.4167	1154.7	1592.9
313.15 K, x1 = 0.5153	1158.26	1592.8
313.15 K, x1 = 0.6157	1163.8	1594
313.15 K, x1 = 0.7042	1169.14	1596.4
313.15 K, x1 = 0.8028	1174.46	1598.9
313.15 K, x1 = 0.9065	1179.21	1602
318.15 K, x1 = 0.0698	1116.33	1602.5
318.15 K, x1 = 0.1114	1125.84	1596.2
318.15 K, x1 = 0.219	1140.07	1587.9
318.15 K, x1 = 0.3157	1147.06	1584
318.15 K, x1 = 0.4167	1150.9	1581.2
318.15 K, x1 = 0.5153	1154.9	1581.6
318.15 K, x1 = 0.6157	1160.61	1582.8
318.15 K, x1 = 0.7042	1165.8	1585.1
318.15 K, x1 = 0.8028	1171.11	1587.7
318.15 K, x1 = 0.9065	1175.65	1590.8

CCCCCn1cc[n+](C)c1.F[B-](F)(F)F [1-methyl-3-pentyl-imidazolium tetrafluoroborate] + OCCO
Conditions	mass density [kg/m3]	speed of sound [m/s]
288.15 K, x1 = 0.0549	1127.51	1659
288.15 K, x1 = 0.1148	1135.95	1639.3
288.15 K, x1 = 0.2053	1145.61	1617.1
288.15 K, x1 = 0.3086	1153.94	1599.3
288.15 K, x1 = 0.4154	1160.64	1587.3
288.15 K, x1 = 0.5063	1165.13	1580.3
288.15 K, x1 = 0.6273	1170.27	1573.1
288.15 K, x1 = 0.7138	1173.4	1569.8
288.15 K, x1 = 0.7982	1176.33	1567.9
288.15 K, x1 = 0.8985	1179.69	1565.9
293.15 K, x1 = 0.0549	1123.89	1646.9
293.15 K, x1 = 0.1148	1132.23	1627.2
293.15 K, x1 = 0.2053	1141.81	1604.6
293.15 K, x1 = 0.3086	1150.12	1586.9
293.15 K, x1 = 0.4154	1156.84	1575
293.15 K, x1 = 0.5063	1161.54	1567.7
293.15 K, x1 = 0.6273	1166.54	1560.8
293.15 K, x1 = 0.7138	1169.75	1558.1
293.15 K, x1 = 0.7982	1172.71	1556.8
293.15 K, x1 = 0.8985	1176.11	1555.3
298.15 K, x1 = 0.0549	1120.27	1634.8
298.15 K, x1 = 0.1148	1128.52	1615.1
298.15 K, x1 = 0.2053	1138.01	1592.4
298.15 K, x1 = 0.3086	1146.31	1574.7
298.15 K, x1 = 0.4154	1153.05	1562.7
298.15 K, x1 = 0.5063	1157.88	1555.5
298.15 K, x1 = 0.6273	1162.86	1548.3
298.15 K, x1 = 0.7138	1166.1	1544.8
298.15 K, x1 = 0.7982	1169.1	1542.3
298.15 K, x1 = 0.8985	1172.64	1540.3
303.15 K, x1 = 0.0549	1116.63	1622.8
303.15 K, x1 = 0.1148	1124.81	1602.9
303.15 K, x1 = 0.2053	1134.22	1580.2
303.15 K, x1 = 0.3086	1142.5	1562.5
303.15 K, x1 = 0.4154	1149.27	1550.6
303.15 K, x1 = 0.5063	1154.21	1543.2
303.15 K, x1 = 0.6273	1159.19	1536.5
303.15 K, x1 = 0.7138	1162.48	1532.8
303.15 K, x1 = 0.7982	1165.5	1530.3
303.15 K, x1 = 0.8985	1169.12	1528.5
308.15 K, x1 = 0.0549	1113	1609.9
308.15 K, x1 = 0.1148	1121.09	1590.9
308.15 K, x1 = 0.2053	1130.44	1568.1
308.15 K, x1 = 0.3086	1138.71	1550.4
308.15 K, x1 = 0.4154	1145.51	1538.5
308.15 K, x1 = 0.5063	1150.46	1531.2
308.15 K, x1 = 0.6273	1155.52	1524.5
308.15 K, x1 = 0.7138	1158.87	1521
308.15 K, x1 = 0.7982	1161.91	1518.5
308.15 K, x1 = 0.8985	1165.59	1516.9
313.15 K, x1 = 0.0549	1109.35	1598.2
313.15 K, x1 = 0.1148	1117.37	1578.9
313.15 K, x1 = 0.2053	1126.66	1556.1
313.15 K, x1 = 0.3086	1134.93	1538.4
313.15 K, x1 = 0.4154	1141.76	1526.5
313.15 K, x1 = 0.5063	1146.71	1519.5
313.15 K, x1 = 0.6273	1151.88	1512.8
313.15 K, x1 = 0.7138	1155.26	1509.2
313.15 K, x1 = 0.7982	1158.35	1506.4
313.15 K, x1 = 0.8985	1162.04	1505.3
318.15 K, x1 = 0.0549	1105.67	1586.7
318.15 K, x1 = 0.1148	1113.63	1566.9
318.15 K, x1 = 0.2053	1122.88	1544.2
318.15 K, x1 = 0.3086	1131.15	1526.6
318.15 K, x1 = 0.4154	1138.02	1514.6
318.15 K, x1 = 0.5063	1142.8	1507.7
318.15 K, x1 = 0.6273	1148.22	1501.5
318.15 K, x1 = 0.7138	1151.65	1497.7
318.15 K, x1 = 0.7982	1154.78	1495.5
318.15 K, x1 = 0.8985	1158.38	1494
